{
  "source": "patent US20110039902A1",
  "about": "“PROCESS FOR PREPARING A CRYSTALLINE FORM COMPOUND OF 3-BENZYL-2-METHYL-2,3,3a,4,5,6,7,7a-OCTAHYDROBENZO[d]ISOXAZOL-4-ONE” (ABIOGEN PHARMA S.P.A., priority 2008, published 2011)",
  "assay": "stability of BTG 1640 hydrochloride salt to temperature",
  "format": "physicochemical",
  "conditions": "at temperatures above 30° C.",
  "data": [
    {"compound": "CN1OC2CCCC(=O)C2C1Cc1ccccc1.Cl", "note": "(stereo not shown) [hydrochloride salt of BTG 1640]", "values": [
      {"measurement": "stability to temperature", "result": "unstable"}
    ]}
  ]
}
